Values quoted from earlier work in patent US20210123868A1, “REAGENT COMPOSITION FOR PH MEASUREMENT” (MIURA CO., LTD., priority 2018, published 2021).

Settings: value at 25° C.

Compound	acid dissociation constant (pKa)
Cc1cc(C2(c3cc(C)c(O)c(Br)c3)OS(=O)(=O)c3ccccc32)cc(Br)c1O [bromocresol purple]	6.3
alizarin yellow	11.06
Cc1c(C2(c3cc(Br)c(O)c(Br)c3C)OS(=O)(=O)c3ccccc32)cc(Br)c(O)c1Br [bromocresol green]	4.7
